Common to all, as to type: in vivo, Danio rerio
Data set [1] relates to 3-dpf Zebrafish Embryos Challenged with LPS (P. aeruginosa 60 μg/mL). The settings on record: for Percent Rescue (Mort + Tail Edema): 3-dpf embryos, n=16; for Percent Rescue (Mort + Tail Edema) / rescue of tail edema and mortality (sepsis rescue rate) at 3-dpf / 3 dpf Embryos Percent Rescue (Mort + Tail Edema): compound 10 μM; for 3 dpf Embryos Percent Rescue (Mort + Tail Edema): initial 3-dpf screen shown for reference. Here is the method: Healthy, normally developing embryos collected from the adult AB zebrafish spawning events were treated with 75 μM of 1-phenyl 2-thiourea (PTU) in EM prior to 24 hours post fertilization (hpf) to block pigmentation formation (Karlsson et al, 2001). These embryos were then placed into an incubator at 28.5° C. until they reached 3-dpf. Embryos were then removed from the incubator and plated individually into the wells of 96 well plates containing 50 μL of EM.
A super stock of 120 μg/mL of P. aeruginosa LPS was made up in EM in a glass container. This stock was then used to make sub stocks of 120 μg/mL P. aeruginosa LPS (positive control) and 120 μg/mL P. aeruginosa LPS containing 20 μM of test drug in glass scintillation vials. Immediately after the sub stocks were made, the wells were dosed with either 50 μL of 120 μg/mL of P. aeruginosa, 120 μg/mL of P. aeruginosa with 20 μM of test drug, or EM (1:1 Dilution). Each 96 well plate had one LPS positive control (n=16), 4 different test drugs with P. aeruginosa LPS (n=16 per drug), and one negative control (n=16). Once the plates were dosed, they were covered with parafilm and placed into an incubator at 28.5° C. The plates were removed at 6- and 24-hours post exposure to be scored for tail edema and mortality. All 644 drugs evaluated for rescue from mortality and tail edema induced by P. aeruginosa LPS exposure as compared to LPS-treated controls after 24 hours of exposure.
3-dpf embryos were challenged with 60 μg/mL P. aeruginosa LPS in combination with single 10 μM concentration of each compound for 24 hours (n=16 fish per compound). […] Other 29 compounds exceeded 60% rescue of tail edema and mortality at 24 hours post exposure.

Data set [2] concerns 5-dpf zebrafish larvae challenged with P. aeruginosa LPS 60 μg/mL. The settings on record: compound 10 μM; for 5 dpf Embryos Percent Rescue (Mort + Tail Edema): 5-dpf larvae. The text has this: Confirmatory testing followed the same methods as the initial testing but used 5-dpf larvae instead of the 3-dpf larvae that were used for the initial screening because they were easier to handle and replicated the methods of Philip et al. (2017).
Next, follow-on 5-dpf screening was implemented to confirm initial screening with more larvae. Zebrafish swim faster at 5-dpf (requiring more time to load 96 plates), and all major organ systems are functioning at 5-dpf and thus determined as advantageous for follow-on confirmation.

The test system of data set [3] is zebrafish (4 dpf pre-treated, LPS exposure at 5-dpf) challenged with P. aeruginosa LPS 60 μg/mL. The settings on record: number of n = 16 fish. The procedure:
Drugs identified with >80% rescue were subjected to additional testing. Drug pretreatment for 24 hours prior to LPS challenge was evaluated to determine if any prophylactic benefit could be realized with any of the top rescue drugs. The intent was to determine if drug pre-treatment might be used at the point of injury as a preventative therapeutic before the onset of infection and development of sepsis. Parallel groups of fish received a 24-hour drug pre-treatment or no drug pre-treatment prior to LPS challenge. For this test, 4 dpf PTU-treated zebrafish embryos were placed into 96 well plates containing 100 μL of EM. […] All plates were covered with parafilm and placed into an incubator at 28.5° C. for 24 hours. […] Once the plates were dosed, they were covered with parafilm and placed into an incubator at 28.5° C. The plates were removed at 6- and 24-hours post exposure and scored for tail edema and mortality. Once the 24-hour tail edema and mortality endpoints were collected, a neurobehavioral test was conducted as described in section 2.8.

The mark [4] stands for this setting: P. aeruginosa LPS 60 μg/mL, 24 hours, hydrochloride.
Setting [5] is: 3-dpf, P. aeruginosa LPS 60 μg/mL, 24 hours.
Setting [6] is: P. aeruginosa LPS 60 μg/mL, 24 hours.
The mark [7] stands for this setting: 3-dpf, P. aeruginosa LPS 60 μg/mL, 24 hours, hydrochloride.
Setting [8] is: 24-hour 10 μM drug pre-treatment.

Where a name gives a salt, the structure may show the parent alone. Read-outs that look alike come from different tables or passages of the source.

In the case of `O=C(Nc1nc(-c2cc(Cl)cs2)c(N2CCN(C3CCCCC3)CC2)s1)c1cnc(N2CCC(C(=O)O)CC2)c(Cl)c1` [Compound 3, Avatrombopag (hydrochloride)], in data set [1] (setting [4]), the “Percent Rescue (Mort + Tail Edema)” value is recorded as 56%.
With `Cc1nc2n(c(=O)c1CCN1CCC(c3noc4cc(F)ccc34)CC1)CCCC2` [Compound 4, Risperidone], in data set [1] (setting [5]), the “rescue of tail edema and mortality (sepsis rescue rate) at 3-dpf” value (“rescue … at 3-dpf” for short) stood at 6%.
Turning to `N[C@@H]1C[C@H]1c1ccccc1.N[C@@H]1C[C@H]1c1ccccc1.O=S(=O)(O)O` [Compound 7, Tranylcypromine (hemisulfate)], in data set [2], the “5 dpf Embryos Percent Rescue (Mort + Tail Edema)” value (“5 dpf Embryos Percent Rescue” below) was found to be 56%. For the same molecule, the “Percent Rescue (Mort + Tail Edema)” value in data set [1] (setting [6]) amounted to 88%. The “3 dpf Embryos Percent Rescue (Mort + Tail Edema)” value (“3 dpf Embryos Percent Rescue” below) in data set [1] (P. aeruginosa LPS 60 μg/mL) was found to be 88%.
Turning to `C[C@H](N)[C@H](O)c1ccc(O)c(O)c1` [Compound 10, Levonordefrin], the “5 dpf Embryos Percent Rescue” value in data set [2] worked out at 75%. Moreover, the “Percent Rescue (Mort + Tail Edema)” value in data set [1] (setting [6]) is on record as 63%. The “3 dpf Embryos Percent Rescue” value in data set [1] (P. aeruginosa LPS 60 μg/mL) worked out at 63%.
Regarding `CC(C)NCC(O)COc1cccc2[nH]ccc12` (stereo not drawn) [Compound 12, Pindolol], the “Percent Rescue (Mort + Tail Edema)” value in data set [1] (setting [6]) came to 56%.
For the molecule `O=C(Nc1nc(-c2cc(Cl)cs2)c(N2CCN(C3CCCCC3)CC2)s1)c1cnc(N2CCC(C(=O)O)CC2)c(Cl)c1` [Compound 31, Avatrombopag], the “5 dpf Embryos Percent Rescue” value in data set [2] was 31%. Moreover, the “Percent Rescue (Mort + Tail Edema)” value in data set [1] (setting [6]) was 75%. Besides, the “3 dpf Embryos Percent Rescue” value in data set [1] (P. aeruginosa LPS 60 μg/mL) is recorded as 75%.
In the case of `CN[C@H]1CC[C@@H](c2ccc(Cl)c(Cl)c2)c2ccccc21` [Compound 37, Sertraline (hydrochloride)], the “5 dpf Embryos Percent Rescue” value in data set [2] amounted to 31%. The “Percent Rescue (Mort + Tail Edema)” value in data set [1] (setting [6]) worked out at 88%. Also, the “3 dpf Embryos Percent Rescue” value in data set [1] (P. aeruginosa LPS 60 μg/mL) was 88%.
Turning to `CC(C)(C)c1ccc(C(O)CCCN2CCC(C(O)(c3ccccc3)c3ccccc3)CC2)cc1` (stereo not drawn) [Compound 44, Terfenadine], the “5 dpf Embryos Percent Rescue” value in data set [2] came to 0%. In data set [1] (setting [6]), the “Percent Rescue (Mort + Tail Edema)” value is recorded as 75%. In data set [1] (3-dpf, 24 hours), the pericardial edema observation result is listed as “had pericardial edemas”. Moreover, the “mortality (survival) in 3-dpf initial screen” value in data set [1] (setting [5]) was “alive at 24 hours”. Moreover, the “3 dpf Embryos Percent Rescue” value in data set [1] (P. aeruginosa LPS 60 μg/mL) stood at 75%.
`Cc1nc2n(c(=O)c1CCN1CCC(c3noc4cc(F)ccc34)CC1)CCCC2O` (stereo not drawn) [Compound 61, Paliperidone]: in data set [1] (setting [5]), the “rescue … at 3-dpf” value was determined as 6%.
For `Clc1ccc(CCCOCCCN2CCCCC2)cc1` [Compound 126, Pitolisant hydrochloride], the “rescue … at 3-dpf” value in data set [1] (setting [7]) was 38%.
Turning to `CC(C)(C(=O)O)c1ccc(C(O)CCCN2CCC(C(O)(c3ccccc3)c3ccccc3)CC2)cc1` (stereo not drawn) [Compound 137, Fexofenadine], the “rescue of tail edema in 3-dpf initial screen” value in data set [1] (3-dpf, P. aeruginosa LPS 60 μg/mL) is recorded as “did not rescue tail edema”. Moreover, in data set [1] (setting [5]), the “mortality (survival) in 3-dpf initial screen” value was “did rescue mortality”.
`Nc1ccc(S(=O)(=O)c2ccc(N)cc2)cc1` [Compound 155, Dapsone]: in data set [2], the “5 dpf Embryos Percent Rescue” value was found to be 25%. Also, in data set [1] (setting [6]), the “Percent Rescue (Mort + Tail Edema)” value was 69%. Besides, the “3 dpf Embryos Percent Rescue” value in data set [1] (P. aeruginosa LPS 60 μg/mL) is 69%.
For `CN(C)[C@@H](CCOc1cccc2ccccc12)c1ccccc1` [Compound 156, Dapoxetine (hydrochloride)], in data set [2], the “5 dpf Embryos Percent Rescue” value was 38%; the “rescue of tail edema and mortality (sepsis rescue rate) at 5-dpf” value (“rescue … at 5-dpf” below) is 38%. Moreover, the “Percent Rescue (Mort + Tail Edema)” value in data set [1] (setting [6]) was 100%. In data set [1] (setting [5]), the “rescue … at 3-dpf” value came to 100%. The “3 dpf Embryos Percent Rescue” value in data set [1] (P. aeruginosa LPS 60 μg/mL) came to 100%.
Consider `CN(C)CCOC(C)(c1ccccc1)c1ccc(Cl)cc1` (stereo not drawn) [Compound 157, Chlorphenoxamine], for which, in data set [1] (setting [6]), the “Percent Rescue (Mort + Tail Edema)” value was 50%.
With `O=C(O)c1cc2ccccc2c(Cc2c(O)c(C(=O)O)cc3ccccc23)c1O.OCCOCCN1CCN(C(c2ccccc2)c2ccc(Cl)cc2)CC1` [Compound 207, Hydroxyzine (pamoate)], the “Percent Rescue (Mort + Tail Edema)” value in data set [1] (setting [6]) is listed as 50%.
For `CNCCc1ccccn1` [Compound 310, Betahistine], in data set [1] (setting [6]), the “Percent Rescue (Mort + Tail Edema)” value amounted to 56%.
`C[C@H]1N=C(N(C)C)N=C(N)N1` [Compound 317, Imeglimin (hydrochloride)]: the “Percent Rescue (Mort + Tail Edema)” value in data set [1] (setting [6]) was 50%.
The same measure, in the same setting: for `CN1CCc2c(c3ccccc3n2Cc2ccccc2)C1` [Compound 318, Mebhydrolin] the value was 56%.
Regarding `CCN(CC)CCNC(=O)c1c(C)[nH]c(/C=C2\C(=O)Nc3ccc(F)cc32)c1C` [Compound 354, Sunitinib (Malate)], in data set [2], the “5 dpf Embryos Percent Rescue” value is listed as 100%; the “rescue … at 5-dpf” value was found to be 100%. Moreover, in data set [1] (setting [6]), the “Percent Rescue (Mort + Tail Edema)” value came out at 88%. In data set [1] (setting [5]), the “rescue … at 3-dpf” value was determined as 88%. In addition, in data set [1] (P. aeruginosa LPS 60 μg/mL), the “3 dpf Embryos Percent Rescue” value stood at 88%.
For `Cc1cc(Nc2ncc(Cl)c(Nc3ccccc3S(=O)(=O)C(C)C)n2)c(OC(C)C)cc1C1CCNCC1` [Compound 378, Ceritinib dihydrochloride], in data set [2], the “5 dpf Embryos Percent Rescue” value turned out to be 38%. Further, the “Percent Rescue (Mort + Tail Edema)” value in data set [1] (setting [6]) was found to be 75%. Besides, the “3 dpf Embryos Percent Rescue” value in data set [1] (P. aeruginosa LPS 60 μg/mL) was determined as 75%.
As for `CNCC[C@H](Oc1cccc2ccccc12)c1cccs1` [Compound 386, Duloxetine (hydrochloride)], in data set [1] (setting [6]), the “Percent Rescue (Mort + Tail Edema)” value came out at 50%.
Consider `CNS(=O)(=O)CCc1ccc2[nH]cc(C3CCN(C)CC3)c2c1` [Compound 438, Naratriptan (hydrochloride)], for which, in data set [1] (setting [6]), the “Percent Rescue (Mort + Tail Edema)” value came out at 50%.
Take `COc1cc2ncnc(Nc3ccc(F)c(Cl)c3)c2cc1OCCCN1CCOCC1` [Compound 516, Gefitinib (ZD1839)]: in data set [1] (setting [6]), the “Percent Rescue (Mort + Tail Edema)” value worked out at 50%.
On the same count and under the same terms, next, `CCN(CC)CC(=O)Nc1c(C)cccc1C` [Compound 549, Lidocaine hydrochloride]: 56%.
For the molecule `Clc1ccc(CCCOCCCN2CCCCC2)cc1` [Compound 589, Pitolisant hydrochloride], the “Percent Rescue (Mort + Tail Edema)” value in data set [1] (setting [4]) is 56%. Further, the “rescue … at 3-dpf” value in data set [1] (setting [7]) is listed as 56%.
As for `CC(C)(C)c1cc(NC(=O)Nc2ccc(-c3cn4c(n3)sc3cc(OCCN5CCOCC5)ccc34)cc2)no1` [Compound 598, Quizartinib (AC220)], the “Percent Rescue (Mort + Tail Edema)” value in data set [1] (setting [6]) amounted to 56%.
In the case of `CCN(CC)CCNC(=O)c1c(C)[nH]c(/C=C2\C(=O)Nc3ccc(F)cc32)c1C` [Compound 621, Sunitinib Malate], in data set [2], the “5 dpf Embryos Percent Rescue” value is 100%; the “rescue … at 5-dpf” value is reported as 100%. Moreover, the “Percent Rescue (Mort + Tail Edema)” value in data set [1] (setting [6]) is 94%. Also, in data set [1] (setting [5]), the “rescue … at 3-dpf” value is given as 88%. Also, the “3 dpf Embryos Percent Rescue” value in data set [1] (P. aeruginosa LPS 60 μg/mL) was determined as 94%.
Consider `CCN(CC)CCNC(=O)c1c(C)[nH]c(/C=C2\C(=O)Nc3ccc(F)cc32)c1C.O=C(O)C[C@H](O)C(=O)O` [Sunitnib (malate)], for which, in data set [3] (10 μM drug with LPS 60 μg/mL, no 24-hour pre-treatment), the “24 hour Tail Edema, No-Drug Pretreatment” value turned out to be 4 fish. Besides, in data set [3] (setting [8]), the “24 Hour Mortality and Tail Edema, Drug Pretreatment” value was 2 fish; the “24 Hour Mortality, Drug Pretreatment” value is 1 fish. Further, the “24 hour Tail Edema, Drug Pretreatment” value in data set [3] (24-hour 10 μM drug pre-treatment before LPS 60 μg/mL) is recorded as 1 fish. In data set [3] (no 24-hour pre-treatment), the “24 Hour Mortality and Tail Edema, No-Drug Pretreatment” value is given as 5 fish; the “24 Hour Mortality, No Drug Pretreatment” value came to 1 fish.
Take Almotriptan (malate) [Compound 6]: in data set [2], the “5 dpf Embryos Percent Rescue” value stood at 63%. In data set [1] (setting [6]), the “Percent Rescue (Mort + Tail Edema)” value is recorded as 63%. Moreover, the “3 dpf Embryos Percent Rescue” value in data set [1] (P. aeruginosa LPS 60 μg/mL) came out at 63%.

These data come from patent publication US20250085273A1, “NOVEL RAPID DRUG DISCOVERY FOR SEPSIS AND AGENTS FOR USE AS SEPSIS THERAPY” (priority 2023, published 2025).
